Assay results from patent US11147272B2, “Pyridone compounds and agricultural and horticultural fungicides comprising the same as active ingredients” (MITSUI CHEMICALS AGRO, INC., priority 2017, dated 2021).

Columns and labels:
Botrytis cinerea = assay: Test Example B: Gray mold on tomato; conditions: Gray mold on tomato; for Test B control value class: class of control value; for Test B control value: control value class
Alternaia brassicicola = assay: Test Example C: Alternaria sooty spot on cabbage; type: in vivo; conditions: Alternaria sooty spot on cabbage; for Test C control value class: class of control value; for Test C control value: control value class
From the text: Seeds of a test plant (cabbage variety: Shikidori) were planted and cultivated until the cotyledons extended.
<Control Value> Control value=100{1−(n/3)}

Phytophthora infestans = assay: whole plant or invertebrate; type: in vivo; conditions: Late blight on tomato; for Test F control value class: class of control value; for Test F control value: control value class
[1] = system: Colletotrichum orbiculare; assay: Test Example H: Anthracnose on cucumber; conditions: 250 ppm spray; for Test H control value class: Anthracnose on cucumber (Sagami Hanjiro), 2.5 ml/pot, assessed 6 to 10 days after inoculation; for Test H control value: Anthracnose on cucumber, 6 to 10 days after inoculation
Puccinia recondita = assay: Test Example E: Brown rust on wheat; type: in vivo; conditions: Brown rust on wheat; for Test E control value class: class of control value; for Test E control value: control value class
Magnaporthe grisea = assay: whole plant or invertebrate; type: in vivo; conditions: Blast on rice; for Test A control value class: class of control value; for Test A control value: control value class
Plasmopara viticola = assay: Test Example G: Downy mildew on vine; conditions: 250 ppm spray; for Test G control value class: Downy mildew on vine (Neomuscat), 2.5 ml/pot, assessed 7 to 10 days after inoculation; for Test G control value: Downy mildew on vine, 7 to 10 days after inoculation
[2] = system: Blumeria graminis f. sp. hordei; assay: Test Example D: Powdery mildew on barley; conditions: Powdery mildew on barley; for Test D control value class: class of control value; for Test D control value: control value class

Structure (SMILES)	Test B control value class (Botrytis cinerea)	Test C control value class (Alternaia brassicicola)	Test F control value class (Phytophthora infestans)	Test H control value class [1]	Test E control value class (Puccinia recondita)	Test A control value class (Magnaporthe grisea)	Test G control value class (Plasmopara viticola)	Test D control value class [2]	Test B control value (Botrytis cinerea)	Test C control value (Alternaia brassicicola)	Test F control value (Phytophthora infestans)	Test H control value [1]	Test E control value (Puccinia recondita)	Test A control value (Magnaporthe grisea)	Test G control value (Plasmopara viticola)	Test D control value [2]
CCn1c(-c2c(F)cc(F)cc2F)c(C(=O)C(C)(C)C)cc(Cl)c1=O [compound 173]	H (more than 50% control value)	H (more than 50% control value)	L (50% or less control value)	H (more than 50% control value)	H (more than 50% control value)	L (50% or less control value)	L (50% or less control value)	H (more than 50% control value)								
CCn1c(-c2ccc(Br)cc2)c(CC(C)C)ccc1=O [compound 175]	H (more than 50% control value)	L (50% or less control value)	L (50% or less control value)	L (50% or less control value)	H (more than 50% control value)	L (50% or less control value)	L (50% or less control value)	H (more than 50% control value)								
CCn1c(-c2ccc(F)cc2Cl)c(C2CCCCC2)ccc1=O [compound 176]	H (more than 50% control value)	H (more than 50% control value)	H (more than 50% control value)	L (50% or less control value)	H (more than 50% control value)	H (more than 50% control value)	L (50% or less control value)	H (more than 50% control value)								
CCn1c(-c2ccc(Br)cc2)c(CC(C)C)cc(Cl)c1=O [compound 177]	H (more than 50% control value)	H (more than 50% control value)	L (50% or less control value)	L (50% or less control value)	H (more than 50% control value)	L (50% or less control value)	L (50% or less control value)	L (50% or less control value)								
CCn1c(-c2ccc(Br)cc2)c(CC(C)C)cc(Br)c1=O [compound 178]	H (more than 50% control value)	H (more than 50% control value)	L (50% or less control value)	L (50% or less control value)	H (more than 50% control value)	L (50% or less control value)	L (50% or less control value)	L (50% or less control value)								
CCn1c(-c2c(F)cc(OC)cc2F)c(C(=O)C(C)(C)C)cc(Cl)c1=O [compound 179]	H (more than 50% control value)	H (more than 50% control value)	L (50% or less control value)	H (more than 50% control value)	H (more than 50% control value)	H (more than 50% control value)	L (50% or less control value)	H (more than 50% control value)								
CCn1c(-c2ccc(F)cc2Cl)c(C2CCCCC2)cc(Cl)c1=O [compound 181]	H (more than 50% control value)	H (more than 50% control value)	L (50% or less control value)	H (more than 50% control value)	H (more than 50% control value)	H (more than 50% control value)	H (more than 50% control value)	H (more than 50% control value)								
CCn1c(-c2ccc(F)cc2Cl)c(C2CCCCC2)cc(Br)c1=O [compound 182]	H (more than 50% control value)	H (more than 50% control value)	L (50% or less control value)	L (50% or less control value)	H (more than 50% control value)	H (more than 50% control value)	L (50% or less control value)	H (more than 50% control value)								
CCc1ccc(=O)n(CC)c1-c1ccc(F)cc1Cl [compound 185]									H (more than 50% control value)	H (more than 50% control value)	L (50% or less control value)	L (50% or less control value)	H (more than 50% control value)	L (50% or less control value)	L (50% or less control value)	H (more than 50% control value)
CCc1cc(Br)c(=O)n(CC)c1-c1ccc(F)cc1Cl [compound 186]									H (more than 50% control value)	H (more than 50% control value)	L (50% or less control value)	H (more than 50% control value)	H (more than 50% control value)	H (more than 50% control value)	H (more than 50% control value)	H (more than 50% control value)
CCc1cc(Cl)c(=O)n(CC)c1-c1ccc(F)cc1Cl [compound 189]									H (more than 50% control value)	H (more than 50% control value)	L (50% or less control value)	H (more than 50% control value)	H (more than 50% control value)	H (more than 50% control value)	H (more than 50% control value)	H (more than 50% control value)
CCCc1ccc(=O)n(CC)c1-c1ccc(F)cc1Cl [compound 190]									H (more than 50% control value)	H (more than 50% control value)	L (50% or less control value)	L (50% or less control value)	H (more than 50% control value)	H (more than 50% control value)	H (more than 50% control value)	H (more than 50% control value)
CCCc1cc(Cl)c(=O)n(CC)c1-c1ccc(F)cc1Cl [compound 191]									H (more than 50% control value)	H (more than 50% control value)	L (50% or less control value)	H (more than 50% control value)	H (more than 50% control value)	H (more than 50% control value)	H (more than 50% control value)	H (more than 50% control value)
CCCc1cc(Br)c(=O)n(CC)c1-c1ccc(F)cc1Cl [compound 192]									H (more than 50% control value)	H (more than 50% control value)	L (50% or less control value)	H (more than 50% control value)	H (more than 50% control value)	H (more than 50% control value)	L (50% or less control value)	H (more than 50% control value)
